Reference: ChEMBL document CHEMBL5107972 (RSC Med Chem, 2022)
In brackets after ≈: the same amount, converted by molar mass. Activity calls are given as the source filed them. The rule behind the calls is not given here.

Tests used:
[1] = system: Staphylococcus aureus; experiment: Antibacterial activity against Staphylococcus aureus ATCC 29213 assessed as inhibition of bacterial growth incubated for 16 to 18 hrs by CLSI based microdilution method; assay type: functional; conditions: time 16-18 hrs
[2] = system: Mycobacterium tuberculosis; experiment: Antitubercular activity against Mycobacterium tuberculosis H37Rv ATCC 27294 assessed as inhibition of bacterial growth incubated for 7 days by Presto blue resazurin microtiter plate assay; assay type: functional; conditions: H37Rv ATCC 27294, 168 h, time 7 day
[3] = system: Mycobacterium tuberculosis; experiment: Bactericidal activity against Mycobacterium tuberculosis H37Rv ATCC 27294 assessed as reduction in colony formation at 1 to 10 times of MIC incubated for 6 to 7 days by time-kill assay; assay type: functional, organism-based; conditions: time 6-7 day

Row | Compound | MIC [1] [µg/mL] | MIC [2] [µg/mL] | Activity [3]
1 | O=c1nc(SCc2cn(-c3cccc([N+](=O)[O-])c3)nn2)sc2c([N+](=O)[O-])cc(Cl)cc12 | ≥ 64 | 32 (≈ 67.1 µM) | 
2 | Cc1ccc(-n2cc(CSc3nc(=O)c4cc(Cl)cc([N+](=O)[O-])c4s3)nn2)c(C)c1 | ≥ 64 | 32 (≈ 69.6 µM) | 
3 | O=c1nc(SCc2cn(-c3ccccc3Cl)nn2)sc2c([N+](=O)[O-])cc(Cl)cc12 | ≥ 64 | 32 (≈ 68.6 µM) | 
4 | O=c1nc(SCc2cn(-c3ccc(N4CCCCC4)cc3)nn2)sc2c([N+](=O)[O-])cc(Cl)cc12 | ≥ 64 | 64 (≈ 124 µM) | 
5 | CC(C)Oc1cccc(-n2cc(CSc3nc(=O)c4cc(Cl)cc([N+](=O)[O-])c4s3)nn2)c1 | ≥ 64 | 64 (≈ 131 µM) | 
6 | CN[C@@H]1[C@H](O[C@H]2[C@H](O[C@H]3[C@H](O)[C@@H](O)[C@H](N=C(N)N)[C@@H](O)[C@@H]3N=C(N)N)O[C@@H](C)[C@]2(O)C=O)O[C@@H](CO)[C@H](O)[C@H]1O [STREPTOMYCIN] |  | 1 (≈ 1.72 µM) | 
7 | COc1cc(-n2cc(CSc3nc(=O)c4cc(Cl)cc([N+](=O)[O-])c4s3)nn2)cc(OC)c1OC | ≥ 64 | 64 (≈ 123 µM) | 
8 | O=c1nc(SCc2cn(-c3ccc4ccccc4c3)nn2)sc2c([N+](=O)[O-])cc(Cl)cc12 | ≥ 64 | 64 (≈ 133 µM) | 
9 | NS(=O)(=O)c1ccc(-n2cc(CSc3nc(=O)c4cc(Cl)cc([N+](=O)[O-])c4s3)nn2)cc1 | ≥ 64 | > 64 | 
10 | O=c1nc(SCc2cn(-c3cccnc3)nn2)sc2c([N+](=O)[O-])cc(Cl)cc12 | ≥ 64 | 32 (≈ 73.9 µM) | 
11 | NNC(=O)c1ccncc1 [ISONIAZID] |  | 0.03 (≈ 0.219 µM) | 
12 | O=c1nc(SCc2cn(-c3ccc(F)c(Cl)c3)nn2)sc2c([N+](=O)[O-])cc(Cl)cc12 | ≥ 64 | 8 (≈ 16.5 µM) | 
13 | O=c1nc(SCc2cn(-c3ccc(N4CCCCC4)c(F)c3)nn2)sc2c([N+](=O)[O-])cc(Cl)cc12 | ≥ 64 | 64 (≈ 120 µM) | 
14 | O=C(O)c1cccc(-n2cc(CSc3nc(=O)c4cc(Cl)cc([N+](=O)[O-])c4s3)nn2)c1 | ≥ 64 | > 64 | 
15 | COc1ccc(-n2cc(CSc3nc(=O)c4cc(Cl)cc([N+](=O)[O-])c4s3)nn2)cc1 | ≥ 64 | 32 (≈ 69.3 µM) | 
16 | O=C(O)c1ccc(-n2cc(CSc3nc(=O)c4cc(Cl)cc([N+](=O)[O-])c4s3)nn2)cc1O | ≥ 64 | > 64 | 
17 | O=c1nc(SCc2cn(-c3ccc(Oc4ccccc4)cc3)nn2)sc2c([N+](=O)[O-])cc(Cl)cc12 | ≥ 64 | 32 (≈ 61.1 µM) | 
18 | O=c1nc(SCc2cn(-c3ccc(O)cc3)nn2)sc2c([N+](=O)[O-])cc(Cl)cc12 | ≥ 64 | 64 (≈ 143 µM) | 
19 | Cc1ccc(-n2cc(CSc3nc(=O)c4cc(Cl)cc([N+](=O)[O-])c4s3)nn2)cc1 | ≥ 64 | 8 (≈ 17.9 µM) | 
20 | NS(=O)(=O)c1cccc(-n2cc(CSc3nc(=O)c4cc(Cl)cc([N+](=O)[O-])c4s3)nn2)c1 | ≥ 64 | > 64 | 

Row | Compound | MIC [1] [µg/mL] | MIC [2] [µg/mL] | Activity [3]
21 | O=c1nc(SCc2cn(-c3ccc(F)cc3)nn2)sc2c([N+](=O)[O-])cc(Cl)cc12 | ≥ 64 | 8 (≈ 17.8 µM) | 
22 | O=c1nc(SCc2cn(-c3ccc(F)c(F)c3)nn2)sc2c([N+](=O)[O-])cc(Cl)cc12 | ≥ 64 | 8 (≈ 17.1 µM) | 
23 | COc1ccc(-n2cc(CSc3nc(=O)c4cc(Cl)cc([N+](=O)[O-])c4s3)nn2)cc1OC | ≥ 64 | 32 (≈ 65 µM) | 
24 | O=c1nc(SCc2cn(-c3ccccc3)nn2)sc2c([N+](=O)[O-])cc(Cl)cc12 | ≥ 64 | 32 (≈ 74.1 µM) | 
25 | O=c1nc(SCc2cn(-c3cccc(F)c3)nn2)sc2c([N+](=O)[O-])cc(Cl)cc12 | ≥ 64 | 8 (≈ 17.8 µM) | 
26 | O=c1nc(SCc2cn(-c3ccc([N+](=O)[O-])cc3)nn2)sc2c([N+](=O)[O-])cc(Cl)cc12 | ≥ 64 | 16 (≈ 33.6 µM) | 
27 | Cc1cccc(-n2cc(CSc3nc(=O)c4cc(Cl)cc([N+](=O)[O-])c4s3)nn2)c1 | ≥ 64 | 8 (≈ 17.9 µM) | 
28 | O=c1nc(SCc2cn(-c3ccc(N4CCOCC4)c(F)c3)nn2)sc2c([N+](=O)[O-])cc(Cl)cc12 | ≥ 64 | 64 (≈ 120 µM) | 
29 | O=c1nc(SCc2cn(-c3ccc(Br)cc3)nn2)sc2c([N+](=O)[O-])cc(Cl)cc12 | ≥ 64 | 4 (≈ 7.83 µM) | 
30 | CC(=O)c1cccc(-n2cc(CSc3nc(=O)c4cc(Cl)cc([N+](=O)[O-])c4s3)nn2)c1 | ≥ 64 | 32 (≈ 67.5 µM) | 
31 | CO[C@H]1/C=C/O[C@@]2(C)Oc3c(C)c(O)c4c(O)c(c(/C=N/N5CCN(C)CC5)c(O)c4c3C2=O)NC(=O)/C(C)=C\C=C\[C@H](C)[C@H](O)[C@@H](C)[C@@H](O)[C@@H](C)[C@H](OC(C)=O)[C@@H]1C [RIFAMPIN] |  | 0.06 (≈ 0.0729 µM) | Active
32 | N#Cc1cccc(-n2cc(CSc3nc(=O)c4cc(Cl)cc([N+](=O)[O-])c4s3)nn2)c1 | ≥ 64 | 64 (≈ 140 µM) | 
33 | COc1cc(OC)cc(-n2cc(CSc3nc(=O)c4cc(Cl)cc([N+](=O)[O-])c4s3)nn2)c1 | ≥ 64 | > 64 | 
34 | O=C(O)c1ccc(-n2cc(CSc3nc(=O)c4cc(Cl)cc([N+](=O)[O-])c4s3)nn2)cc1 | ≥ 64 | > 64 | 
35 | CC[C@@H](CO)NCCN[C@@H](CC)CO [ETHAMBUTOL] |  | 1 (≈ 4.89 µM) | 
36 | O=c1nc(SCc2cn(-c3ccccc3F)nn2)sc2c([N+](=O)[O-])cc(Cl)cc12 | ≥ 64 | 16 (≈ 35.6 µM) | 
37 | O=c1nc(SCc2cn(-c3cccc(Cl)c3)nn2)sc2c([N+](=O)[O-])cc(Cl)cc12 | ≥ 64 | 16 (≈ 34.3 µM) | 
38 | O=c1ccc2cc(-n3cc(CSc4nc(=O)c5cc(Cl)cc([N+](=O)[O-])c5s4)nn3)ccc2o1 | ≥ 64 | 32 (≈ 64 µM) | 
39 | O=c1nc(SCc2cn(-c3cccc(C(F)(F)F)c3)nn2)sc2c([N+](=O)[O-])cc(Cl)cc12 | ≥ 64 | 8 (≈ 16 µM) | 
40 | CCCCCCOc1ccc(-n2cc(CSc3nc(=O)c4cc(Cl)cc([N+](=O)[O-])c4s3)nn2)cc1 | ≥ 64 | 8 (≈ 15 µM) | 
